Measured values taken from ChEMBL document CHEMBL3507680, “University of Dundee, Gates Library screen for HepG2 cell viability”.

Assay: Human HepG2 cell viability assay in 384 well format
Assay type: toxicity, cell-based
Design: dose 125 nL, time 70.5 hour; cytotoxicity at 70.5 h: concentration not given beside the values
Conditions: HepG2 cells, read-out: Inhibition

Row | SMILES | cytotoxicity at 70.5 h [%]
1 | CC(C)Oc1ccccc1OCCN1C(=O)CCNC1=O | 22.4
2 | Cc1cnc(N2CCC3(CCN(CC4CC4)C3=O)CC2)nc1 | -9.16
3 | Cc1occc1C(=O)N1CCn2cnc(COCC3CC3)c2C1 | -0.838
4 | CCOc1ccc(CNC(C)c2cccc(S(=O)(=O)NC)c2)cc1 (configuration not stated) | -9.92
5 | COc1ccc(S(=O)(=O)N2CC(CC(=O)O)c3ccccc32)cc1 (configuration not stated) | -0.927
6 | CCc1nnc(Nc2cc(C)nc(C3CCN(c4ncccn4)C3)n2)s1 (configuration not stated) | 3.49
7 | Cc1ccccc1C1(CN)CCCCC1 | 10.6
8 | NC(=O)C1=NC2=NS(=O)(=O)c3ccccc3N2N1Cc1ccccc1Cl | -7.31
9 | CN(CCCOc1ccccc1Cl)C(=O)CN1C[C@@H]2CC[C@H](CC1=O)N2 | -2.68
10 | c1cncc(CN2CCn3cc(CN4CCCCC4)nc3C2)c1 | -5.48
11 | Cc1nc(CN(CCc2ccccc2)C2CCN(C)CC2)no1 | -10.3
12 | CC(NC(=O)N1CCN(c2ccccc2O)CC1)c1nncn1C (configuration not stated) | 1.59
13 | O=C(CCNS(=O)(=O)c1cccnc1)N1CCCCC1 | 15.8
14 | C1CC(CN2C[C@@H]3C[C@@H](c4nnc(C5CC5)o4)O[C@@H]3C2)CCO1 | -7.69
15 | c1coc(-c2[nH]c3ncccc3c2CN2CCCOCC2)c1 | -4.25
16 | Cc1ccc(CN2CC3(CCN(C(=O)c4cscn4)C3)C2)s1 | -7.12
17 | CC(C)N1CCC(CC(=O)NCC2OCCc3ccccc32)CC1 (configuration not stated) | -9.87
18 | CSC(C)C(=O)N(C)C1CCN(c2ccc(Cl)cc2)CC1 (configuration not stated) | 2.45
19 | c1cnc(NCc2nnn3c2CN(Cc2ccco2)CCC3)nc1 | -109
20 | CN(CC(=O)Nc1nncs1)CC1CCCN1c1cccnn1 (configuration not stated) | 4.97
21 | CCN1CCO[C@@H]2CN(C(=O)COC3CCCC3)C[C@@H]2C1 | 7.26
22 | CCc1nc(CN(C(C)=O)C2CCN(CCc3ccccn3)C2)no1 (configuration not stated) | -11.5
23 | CC(Nc1c(F)cc(C#N)cc1F)c1cccc(S(N)(=O)=O)c1 (configuration not stated) | -9.34

Row | SMILES | cytotoxicity at 70.5 h [%]
24 | CC(=O)N1CCc2[nH]cnc2C12CCN(C(=O)Cc1ccccn1)CC2 | -14.9
25 | O=c1c(CN2CCCCCC2)coc(O)c1CN1CCOCC1 | -2.1
26 | O=C1CC(c2ccsc2)c2cnn(C3CCCC3)c2N1 (configuration not stated) | -9.93
27 | N[C@@H]1CCN(Cc2cc(-c3ccccc3OC(F)(F)F)no2)C[C@H]1O | -10.6
28 | CNC(=O)[C@H]1C[C@@H]2CN(C(=O)c3ccoc3)C[C@@H]2N1S(C)(=O)=O | -12
29 | Cc1cn2c(n1)CCC(NC(=O)c1csc(C(C)C)n1)C2 (configuration not stated) | -0.273
30 | CCOc1cc(CNC(=O)c2cnn(CC)c2C(F)(F)F)ccn1 | -12.6
31 | O=C(NCCNc1cnccn1)N1CCc2ccccc2C1 | -13.1
32 | CSc1ccc(CCNC(=O)Cc2c(C)n[nH]c2C)cc1 | -7.74
33 | Cc1ccc(OCCn2cnc3oc(C)c(C(=O)O)c3c2=O)cc1 | 19.9
34 | CCC(=O)N1CCC(Cc2cnc(Nc3cnccn3)cn2)CC1 | -11.1
35 | CC1CCN(c2nccn3c(=O)[nH]nc23)CC1 | -3.79
36 | CC(=O)c1ccc(C(=O)N2C[C@@H](CN3CCCC3)[C@@H](CO)C2)cc1 | 12.4
37 | CC(NCc1ccncc1)c1cc2c(cc1Br)OCCO2 (configuration not stated) | -4.83
38 | CCn1cc(CN(C)S(=O)(=O)c2ccc(NC(C)=O)cc2)cn1 | 26.5
39 | Cc1cnc(C)c(N2CCN(Cc3ccc(-c4cc[nH]n4)o3)CC2)n1 | -12.4
40 | CS(=O)(=O)c1ccc(CNC[C@H]2COCc3nc4cccnc4n32)cc1 | -1.94
41 | CC(=O)c1cccc(OCCCC(=O)NCC2CCCN2C)c1 (configuration not stated) | 7.09
42 | COCC1CN(C(=O)c2cnc(C)cn2)Cc2ncnn2C1 (configuration not stated) | 19
43 | CCC(=O)NS(=O)(=O)c1cccnc1Nc1cccc(Cl)c1Cl | 31.6
44 | CC(O)c1cn(C2CCN(C(=O)C3(C)CCN(C)CC3)CC2)nn1 (configuration not stated) | -10.9
45 | CC(=O)N1CC[C@@]2(O)CCCC[C@H]2[C@@H]1c1ccccc1 | -0.54
46 | O=C([C@H]1COC[C@H]2CN(C3CCCCC3)C[C@H]21)N1CCOCC1 | -9.52

Row | SMILES | cytotoxicity at 70.5 h [%]
47 | Cc1cnn(C2CCCN(C(=O)COc3ccc(C(N)=O)cc3)C2)c1 (configuration not stated) | -9.97
48 | Cc1csc(CN2CC[C@H]3C[C@@H](c4nc(C)no4)O[C@@H]3C2)n1 | -7.69
49 | COc1ccc(-c2nc(CN3CCOCS3(=O)=O)c(C)o2)cc1 | -0.0234
50 | Cc1nnc([C@H]2CC[C@@H]3[C@@H](CCN3CC3CCOCC3)O2)o1 | -2.48
51 | CCN(CC)c1ccc2ccc(C(=O)N(C)C)cn12 | 8.29
52 | CCn1cc(S(=O)(=O)NC2CCCN(CCCc3ccccc3)C2)cn1 (configuration not stated) | -1
53 | Cc1cccn2cc(CC(=O)N(CCN(C)C)CC3CCCO3)nc12 (configuration not stated) | 17.3
54 | O=C(CCc1ccncc1)N1CCc2c(ncnc2N2CCOCC2)C1 | 31.1
55 | CSCC[C@@H](CO)n1ccnc1-c1nccn1C | -5.66
56 | O=C(c1cc2c(F)cccc2[nH]1)N1CCC(Nc2cccnn2)CC1 | 0.884
57 | Cc1nc(CN2CCN(C(=O)CCc3ccco3)CC2)cs1 | -5.22
58 | Cc1ccc(CN2Cc3c(C(=O)N4CCN(C)CC4)nn(C)c3C2)s1 | -3.87
59 | CN(Cc1cccnc1)Cc1cncc2c1CCN(Cc1ccoc1)C2 | -7.08
60 | CCOc1ccc(NC(=O)c2[nH]c(C)cc2C)cc1CO | 20.6
61 | O=C(C1SCCc2ccccc21)N1CCC(O)CC1 (configuration not stated) | -7.52
62 | CS(=O)(=O)NCCC1CCCN(Cc2ccccc2F)C1 (configuration not stated) | -7.9
63 | CC(NC(=O)N1CCSC(C)(C)C1)c1noc(-c2ccccc2)n1 (configuration not stated) | -0.307
64 | COC(=O)COc1cccc(NS(=O)(=O)c2cc(C(=O)O)cs2)c1 | 10.9
65 | CS(=O)(=O)NC1CCc2c(ccc(=O)n2CC2CC2)C1 (configuration not stated) | -15.1
66 | Cc1cc(NC(=O)CO)nn1-c1ccc(Cl)cc1Cl | 4.81
67 | CNC(=O)c1cccnc1Oc1ccccc1 | -5.8
68 | Cc1ccc(NC2CCN(C(=O)CCCn3ccnc3C)CC2)nn1 | -7.72
69 | O=C(NCc1nnc2n1CCC2)N(Cc1ccco1)C1CC1 | -10.5

Row | SMILES | cytotoxicity at 70.5 h [%]
70 | Cc1cc(C(=O)NS(C)(=O)=O)ccc1I | -4.1
71 | CC(CNS(N)(=O)=O)c1ccc(F)c(F)c1 (configuration not stated) | 3.38
72 | C[C@H]1C[C@H]2CN(C(=O)CC3CC3)CC[C@H]2O1 | -7.47
73 | Cc1cc(C)n(CC2CCCN2CCCc2nc3ccccc3o2)n1 (configuration not stated) | -1.67
74 | O=C(NCc1cc2ccccc2[nH]1)C1CCCN(C(=O)N2CCCC2)C1 (configuration not stated) | -3.92
75 | CN(C)C(=O)CN1C[C@@H]2CC[C@H](C1)N(Cc1ccc(Cl)cc1Cl)C2 | 2.51
76 | CCn1cc2c(n1)CN(Cc1ccncc1)CC2COCC1CC1 (configuration not stated) | -17.6
77 | COCCN(Cc1cccc(O)c1)Cc1ccccc1F | 1.04
78 | Cc1cccc(CN(Cn2nc(C)c3c(C)onc3c2=O)C2CC2)c1 | -13.7
79 | O=C(O)c1c(-c2ccncc2)ncc2c1CCN(C1CCOC1)C2 (configuration not stated) | -9.17
80 | Cc1cc(C)n(CC(C)NC(=O)c2cc(C(C)C)on2)n1 (configuration not stated) | -4.49
81 | Cc1cscc1C(=O)N1CCCC1CC(=O)c1cnn(C)c1 (configuration not stated) | -5.58
82 | O=C(NC[C@H]1OC[C@@H]2CCN(C3CCOCC3)C[C@@H]21)c1ccncc1 | -3
83 | NC(=O)CN(C(=O)Cc1ccc(C(F)(F)F)cc1)C1CCCC1 | -7.24
84 | O=C(Cc1csc(-c2ccoc2)n1)NCCCN1CCCCC1 | -5.46
85 | Cc1nc(C)n(C2CCCN(C(=O)c3c(C)nn4cccnc34)C2)n1 (configuration not stated) | 20.7
86 | COC(C(=O)NCc1c(C)nc2cc(=O)[nH]n2c1C)c1ccccc1 (configuration not stated) | -3.2
87 | Cc1noc(C)c1C(=O)N1CCCN(Cc2nccn2C(C)C)CC1 | 0.0993
88 | CC(C)c1nc2c(n1C)CCN(Cc1nc(-c3ccsc3)no1)C2 | -9.76
89 | CCn1nc(C)c2ccn(CC(=O)NCCCOC)c(=O)c21 | -6.99
90 | O=c1ccc2c(n1CC1CC1)CCC(NCc1cccs1)C2 (configuration not stated) | -10.4
91 | CCc1ocnc1C(=O)N1CCCC(n2nc(C)nc2C)C1 (configuration not stated) | 5.06
92 | N#Cc1cccc(NC(=O)C2CCCN2c2nccs2)c1 (configuration not stated) | -2.24

Row | SMILES | cytotoxicity at 70.5 h [%]
93 | CC(C)CCN1CCN(C(=O)c2cnccn2)CC1 | 18.6
94 | COc1cc(N2CCCC3(CCN(c4cccnc4)C3=O)C2)ncn1 (configuration not stated) | 19.9
95 | CCn1cnnc1CN(C)C(=O)c1cc(COc2cccc(F)c2)[nH]n1 | 10.8
96 | COCCN1C=NC2(CCC(C(=O)Nc3ccc(C)cc3)CC2)C1=O (configuration not stated) | -3.77
97 | CCN1CCCC1CN(CCN(C)C)S(=O)(=O)c1cccc(C#N)c1 (configuration not stated) | -1.36
98 | O=C(CNC1(CCO)CCOCC1)Nc1ccc(F)cc1F | 10.9
99 | Cc1cccc(COC[C@@H]2CC[C@H]3[C@H](CCN3C(=O)CC3CC3)O2)n1 | -6.33
100 | CCN(Cc1ccccc1C)S(C)(=O)=O | -3.77
101 | CCOCC(=O)N1CCC(CSCc2ccco2)CC1 | -10.8
102 | O=C(CCC(=O)N1CCC(OCc2cccnc2)CC1)c1ccccc1 | -1.13
103 | CC(C)OCc1ncn2c1CN(Cc1nccs1)CCC2 | -6.03
104 | O=C(CCn1c(C(F)F)cc2cccnc21)NC1CCCCC1 | -5.83
105 | Cc1cc(C)c2c(c1)C(NC(=O)CSc1nnc[nH]1)CCO2 (configuration not stated) | 10.8
106 | CS(=O)(=O)N1C[C@@H]2CC[C@H](C1)N(C(=O)CCc1n[nH]c3c1CCCC3)C2 | 27.3
107 | Cc1csc(N2CCCN(C(=O)c3cccs3)CC2)n1 | 3.15
108 | COCCC(=O)N1CCCC(CCC(=O)NCc2ccccc2F)C1 (configuration not stated) | -6.55
109 | CC1CN(C(=O)CCc2cc(Br)cs2)CCO1 (configuration not stated) | -4.33
110 | CCC(C#N)NC(=O)c1cc(Br)c2c(c1)OCCO2 (configuration not stated) | -9.18
111 | O=C(c1ccco1)N1CCC[C@]2(C[C@H](Oc3ncccc3F)CO2)C1 | -1.08
112 | CN(Cc1nc(C(F)(F)F)cs1)C(=O)CCc1ccccn1 | -1.82
